In general, % Inhibition refers to the change of the read-out against control, counted positive when it falls. Low readings indicate little suppression, high ones strong suppression.

The target in this assay is T1, transpeptidase enzyme (PBP1b) (Escherichia coli, UniProt P02919).
T1 construct: the ponB gene encoding PBP1b is overexpressed since the strain contains a plasmid comprising a further copy of ponB under the control of its native promoter; made in house; host or cells: Escherichia coli AMA1004 ΔponA; pBS96 (membranes solubilised with 1% CHAPS and 1M NaCl; supernatant used)
In words: Scintillation proximity assay for formation of radiolabelled cross-linked peptidoglycan (transpeptidase inhibition). It counts as biochemical. The method, then:
4 mg of Escherichia coli AMA1004 cell membranes prepared as described in WO 99/60155 were incubated with 5 ml of 100 mM ampicillin in 50 mM Tris HCl buffer pH 7.5 and 0.1 mM MgCl2 for 30 minutes at room temperature. The membranes were sedimented by centrifugation at 150,000×g for 15 minutes and then washed three times. They were finally resuspended in 1 ml of 50 mM Tris HCl buffer and 0.1 mM MgCl2. […]
The membranes of this E. coli strain were prepared as described in WO 99/60155. They were then treated with a detergent, 1% (3-[(3-cholamidopropyl)dimethylammonio]-1-propane-sulphonate (CHAPS), and 1M NaCl at a protein concentration of 5 mg/ml for 1 hour at room temperature. The mixture was then centrifuged at 150,000×g for 15 minutes in a Beckman table top ultracentrifuge and the supernatant containing PBP1b collected. The quantity of PBP1b protein used was the “soluble fraction” equivalent to 5 μg of starting membrane. […]
The microtitre plate was left for 3 to 10 hours at room temperature before being counted in the “Microbeta Trilux” counter. […]
Table 1 below enumerates the inhibitory effects of penicillin G on the transpeptidase enzyme (after subtracting the corresponding 0% reaction readings).
Background: In a scintillation proximity assay essentially only radioactivity close to the scintillant gives light.

T1 sequence (P02919 whole entry): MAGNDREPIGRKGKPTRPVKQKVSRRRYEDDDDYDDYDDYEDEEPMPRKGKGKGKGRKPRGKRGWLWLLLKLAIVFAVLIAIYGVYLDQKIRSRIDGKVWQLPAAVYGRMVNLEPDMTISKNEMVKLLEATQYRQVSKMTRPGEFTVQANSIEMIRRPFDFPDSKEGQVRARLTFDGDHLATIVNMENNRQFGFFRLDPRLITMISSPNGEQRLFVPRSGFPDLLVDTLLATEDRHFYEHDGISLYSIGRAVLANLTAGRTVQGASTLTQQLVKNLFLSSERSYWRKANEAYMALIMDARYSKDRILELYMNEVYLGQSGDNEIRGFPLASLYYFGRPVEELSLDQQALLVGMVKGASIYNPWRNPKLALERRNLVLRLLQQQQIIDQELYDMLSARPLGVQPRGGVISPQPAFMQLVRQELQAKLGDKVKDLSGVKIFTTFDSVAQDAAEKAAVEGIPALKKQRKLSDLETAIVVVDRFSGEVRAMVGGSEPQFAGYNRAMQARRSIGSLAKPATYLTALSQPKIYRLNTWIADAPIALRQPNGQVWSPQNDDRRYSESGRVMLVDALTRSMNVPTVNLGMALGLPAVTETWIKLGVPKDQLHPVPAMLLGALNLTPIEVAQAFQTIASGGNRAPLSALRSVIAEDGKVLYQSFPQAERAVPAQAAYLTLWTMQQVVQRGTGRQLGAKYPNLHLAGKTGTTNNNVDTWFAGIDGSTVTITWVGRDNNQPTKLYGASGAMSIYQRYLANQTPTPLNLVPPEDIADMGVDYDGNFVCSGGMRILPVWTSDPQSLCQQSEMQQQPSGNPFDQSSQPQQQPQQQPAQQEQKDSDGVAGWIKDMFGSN

Compound `CC1(C)S[C@@H]2[C@H](NC(=O)Cc3ccccc3)C(=O)N2[C@H]1C(=O)O` [Penicillin G, penicillin G] gave a Counts per minute (after subtracting the corresponding 0% reaction readings, PBP1b extract from E. coli AMA1004 ΔponA, pBS96, ampicillin-treated AMA1004 membranes, 37° C. for 15 minutes) of 319. For the same compound, where the note is “inhibitory effect on the transpeptidase enzyme, relative to wells with no test compound (100% reaction controls), test concentration not given”, the “% Inhibition” value is listed as 94%.

(Values after patent US7419788B2, “Method for screening anti-bacterial agents” (priority 2001, dated 2008).)
